Measured values as given in patent publication US20200407717A1, “METHODS OF MODULATING ANTISENSE ACTIVITY” (Ionis Pharmaceuticals, Inc., priority 2018, published 2020).
pEC50: −log10 of the molar value. In the oligonucleotide strings, read from the 5' end, every base follows the letter of its sugar. An asterisk marks phosphorothioate; unmarked linkages are phosphodiester. Other units and linkages are bracketed, terminal groups are in braces. A string of capitals states the bases alone. e = 2'-O-(2-methoxyethyl) (MOE); {AF594} = Alexa Fluor 594 dye; k = constrained ethyl (cEt); {FITC} = fluorescein label; [5mC] = 5-methylcytosine; d = 2'-deoxy (DNA)

Assays:
[1] = target: T1, EGFR (Homo sapiens, UniProt P00533); test: Direct NanoBRET binding assay; parameters: made in house; host or cells: HEK293 cells; details: Direct BRET, AF594-labeled oligonucleotide 0.1-10,000 nM
Description: (§1) NanoBRET (bioluminescence resonance energy transfer) binding assays were performed as described in Vickers and Crooke. PLOS One, 11(8), (2016). An EGFR NLuc construct was prepared by first amplifying human EGFR from the full length cDNA clone (Origene RC217223) with forward PCR primer 5′-[…]-3′ (SEQ ID NO: 1) and reverse PCR primer 5′-[…] (SEQ ID NO: 2). The amplified product was ligated into the NheI and XhoI sites of the NanoLuc expression vector pFC32K Nluc CMV-Neo (Promega). Protein was expressed in HEK293 cells and isolated using Protein G magnetic beads. For competitive BRET, the Alexafluor594-labeled modified oligonucleotide 766636 was diluted into water in opaque white 96-well plates at 10 nM and competed with 0.1-10,000 nM of unlabeled modified oligonucleotide. […] of 2× binding buffer containing […] (relative luminescence units) beads/well was added and plates were shaken for 10 minutes at room temperature. Nanoluciferase activity and BRET were measured in a Glowmax Discover plate reader and EC50 values, shown in the tables below, were calculated using GraphPad Prism. For direct BRET, Alexafluor594 modified nucleotides were diluted at 0.1-10,000 nM and experiments were performed as described above.

[2] = target: T1, EGFR; test: Pull-down assay in the presence of EGF; assay type: binding; parameters: endogenous in cells; host or cells: A431 cells
Description: A431 cells were treated with 100 ng/mL, 200 ng/mL, or 400 ng/mL EGF and then lysed. The cell lysates were mixed with beads bound to compound no. 451104, as prepared as in Example 1. Proteins were eluted with compound no. 116847 and run on a SDS-PAGE followed by western blot, as in Example 1. The same membrane was sequentially blotted for total EGFR (T-EGFR), phosphorylated EGFR (P-EGFR, ab205827, Abcam), nucleolin (ab22758, Abcam), and TCP1β. […] 451104 to EGFR.
In a similar experiment in which EGF was added after cell lysis, A431 cells were lysed and mixed with beads bound to compound no. 451104. Varying concentrations of EGF were added during the elution step with compound no. 116847.

[3] = target: T1, EGFR; test: Competitive NanoBRET binding assay; parameters: made in house; host or cells: HEK293 cells; details: Competitive BRET vs 10 nM AF594-labeled 766636
Description: as §1

[4] = tested on: EGFR; test: Pulse-chase EGFR synthesis and degradation, A431 cells; assay type: cell-based
Description: In order to test the effects of a PS-ASO on EGFR synthesis and degradation, A431 cells were incubated with either compound no. 116847 or no PS-ASO compound for 16 hours. A pulse-chase protocol was then performed in which the cells were incubated for 20 minutes in cysteine and methionine free media followed by incubation with [^35S]-Met and [^35S]-Cys in order to analyze newly synthesized protein. Cell samples were collected in RIPA buffer after 50 minutes (FIG. 6A) or at the times indicated in the tables below, and cell lysates were immunoprecipitated with EGFR antibody or s100a10 antibody (610071, BD Bioscience). The resulting, labeled immunocomplexes were resolved by SDS-PAGE and visualized by autoradiography using phosphoimager. FIG. 6A and Table 13 show the levels of nascent EGFR protein and nascent s100a10, a control protein. […] 116847 relative to cells that were not incubated with an ASO.

[5] = tested on: EGF-EGFR signaling; test: EGFR signaling western blot (p-EGFR, p-ERK), A431 cells; assay type: cell-based
Description: In order to test the effects of a PS-ASO on EGFR signaling, A431 cells were incubated with compound no. 116847 or no PS-ASO compound for 16 hours. All cells were then treated with EGF prior to being subjected to the pulse-chase protocol described above. Cell lysates were run on a SDS-PAGE gel and analyzed by sequential western blot for phosphorylated EGFR (P-EGFR), total EGFR (T-EGFR), phosphorylated ERK (P-ERK), and total ERK (T-ERK) using the antibodies described above for EGFR, 4370 for P-ERK (Cell Signaling Technology), and 4695 for T-ERK (Cell Signaling Technology).
110080, 25690, 25699, 395251, or 395254 at 2 μM for 16 hours prior to carrying out the pulse-chase experiment described above.

[6] = target: T1, EGFR; test: Competitive BRET in absence or presence of exogenous EGF; assay type: binding; parameters: made in house; host or cells: HEK293 cells
Description: as §1
The binding affinities for EGFR of PS-ASOs with various sugar modifications were measured with competitive BRET, as described in Example 1. 10 nM compound no. […]

[7] = target: T1, EGFR; test: Membrane binding assay, EGFR; parameters: purchased ThermoFisher PV3872; details: EGFR 5 nM to 150 nM
Description: (§2) A membrane binding assay was performed to test the binding affinities of modified oligonucleotides to EGF and EGFR. Purified recombinant EGF (PHG0311L, ThermoFisher) or EGFR protein (PV3872, ThermoFisher) were incubated with FITC-labeled phosphorothioate oligonucleotide, compound no. 256903 or FITC-labeled phosphate oligonucleotide, PO-ASO, in binding buffer (20 mM Tris-HCl, pH 7.5, 150 mM NaCl, 1 mM DTT, 10% glycerol) for 1 hr at 37° C. Each reaction contained purified EGF at 3 nM to 3 μM or recombinant EGFR at 5 nM to 150 nM. Samples were loaded onto a hyband ECL nitrocellulose membrane (GE Healthcare) and soaked in wash buffer (20 mM Tris-HcCl, pH 7.5, 250 mM NaCl). Protein-bound ASOs were transferred to the membrane by applying a vaccum in a 96-well Bio-Rad Bio-Dot apparatus. After washing, membranes were air-dried and scanned using a phoshoimager (GE Healthcare). Kds were calculated for compound no. 256903 using Prism. The results below represent an average of three replicate experiments. […] In contrast, compound no. 256903 bound to both EGF and EGFR, with a higher affinity for EGFR than for EGF.

[8] = target: T2, Purified recombinant EGF (Homo sapiens, UniProt P01133); test: Membrane binding assay, EGF; details: EGF 3 nM to 3 μM
T2 construct: purchased ThermoFisher PHG0311L
Description: as §2

T2 sequence (P01133 971-1023 limits assumed): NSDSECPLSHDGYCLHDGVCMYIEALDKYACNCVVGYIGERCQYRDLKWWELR

Substance “AF594-GksGksTks^mCdsGdsAds^mCds^mCdsGdsAdsAdsGdsTds^mCksAksTk (antisense GGTCGACCGAAGTCAT; 5'-AF594 label, cEt/MOE, 5-methylC, phosphorothioate, chemistry not fully specified) [compound 1024788]” has a pEC50 [1] of 6.28.

Substance “AF594-GksGks^mCdsTdsAds^mCdsTdsAds^mCdsGds^mCds^mCdsGdsTks^mCksAk (antisense {AF594}-kG*kG*d[5mC]*dT*dA*d[5mC]*dT*dA*d[5mC]*dG*d[5mC]*d[5mC]*dG*kT*k[5mC]*kA) [compound 936533]” has a pEC50 [1] of 6.26.

Work on “AF594-Gks^mCksAksTdsGdsTdsTds^mCdsTds^mCddsAds^mCdsAdsTksTksAk (antisense {AF594}-kG*k[5mC]*kA*dT*dG*dT*dT*d[5mC]*dT*d[5mC]*dA*d[5mC]*dA*kT*kT*kA) [compound 1055615]” yielded a pEC50 [1] of 6.13.

In the case of “AF594-^mCes^mCesTesTes^mCes^mCds^mCdsTdsGdsAdsAdsGdsGdsTdsTds^mCes^mCesTes^mCes^mCe (antisense {AF594}-e[5mC]*e[5mC]*eT*eT*e[5mC]*d[5mC]*d[5mC]*dT*dG*dA*dA*dG*dG*dT*dT*e[5mC]*e[5mC]*eT*e[5mC]*e[5mC]) [compound 1024789]”, the pEC50 [1] was 6.69.

For “Biotin-TEG-^mCesTesGes^mCesTesAdsGds^mCds^mCdsTds^mCds^ioUdsGdsGdsAdsTesTGesTesGesAe [compound 451104]”, the “competition by exogenous EGF for binding to EGFR” value ([2]; A431 cells treated with 100, 200 or 400 ng/mL EGF, then lysed) was “did not compete” and the “recovery of EGFR, nucleolin, or TCP1β from the beads on direct addition of EGF” value ([2]; EGF added to cell lysates during elution) was “did not significantly alter”.

For “CTGCTAGCCTCTGGATTTGA (sugars from the 5' end e5 d10 e5, all phosphorothioate, methylation of C not given here) [compound 116847, 5-10-5 2′-MOE gapmer, phosphorothioate]”, the pEC50 ([3]; Table 5) was 6.74, the pEC50 ([3]; Table 6) was 5.78 and the “EGFR synthesis and degradation” value ([4]; 16 hours incubation, relative to cells not incubated with an ASO) was “unchanged”. For the same substance, the “Relative Abundance of EGFR (%)” value ([4]; Time 0 hr) was 103%, the “Relative Abundance of EGFR (%)” value ([4]; Time 4 hr) was 91% and the “Relative Abundance of EGFR (%)” value ([4]; Time 16 hr) was 69%. The “Relative Abundance of EGFR (%)” value ([4]; Time 24 hr) was 54%, the EGF-EGFR signaling ([5]; 16 hours incubation, then EGF) was “not affected” and the “p-EGFR (%)” value ([5]; Time 0.5 hr) was 89%. The “p-ERK (%)” value ([5]; Time 0.5 hr) was 102%, the “p-EGFR (%)” value ([5]; Time 1 hr) was 76% and the “p-ERK (%)” value ([5]; Time 1 hr) was 94%. For the same substance, the “p-EGFR (%)” value ([5]; Time 2 hr) was 85%, the “p-ERK (%)” value ([5]; Time 2 hr) was 85% and the “p-EGFR (%)” value ([5]; Time 4 hr) was 55%. For the same substance, the “p-ERK (%)” value ([5]; Time 4 hr) was 87%, the “Bret Ratio (% Max)” value ([6]; 0.01 nM, EGF added 0) was 15.0 % Max and the “Bret Ratio (% Max)” value ([6]; 0.01 nM, EGF added 100 ng/mL) was 13.3 % Max. For the same substance, the “Bret Ratio (% Max)” value ([6]; 0.03 nM, EGF added 0) was 15.4 % Max, the “Bret Ratio (% Max)” value ([6]; 0.03 nM, EGF added 100 ng/mL) was 12.4 % Max and the “Bret Ratio (% Max)” value ([6]; 0.1 nM, EGF added 0) was 16.2 % Max. For the same substance, the “Bret Ratio (% Max)” value ([6]; 0.1 nM, EGF added 100 ng/mL) was 13.2 % Max, the “Bret Ratio (% Max)” value ([6]; 0.30 nM, EGF added 0) was 19.6 % Max and the “Bret Ratio (% Max)” value ([6]; 0.30 nM, EGF added 100 ng/mL) was 15.1 % Max. For the same substance, the “Bret Ratio (% Max)” value ([6]; 1.0 nM, EGF added 0) was 26.1 % Max, the “Bret Ratio (% Max)” value ([6]; 1.0 nM, EGF added 100 ng/mL) was 18.0 % Max and the “Bret Ratio (% Max)” value ([6]; 3.0 nM, EGF added 0) was 32.6 % Max. The “Bret Ratio (% Max)” value ([6]; 3.0 nM, EGF added 100 ng/mL) was 24.2 % Max, the “Bret Ratio (% Max)” value ([6]; 10.0 nM, EGF added 0) was 41.8 % Max and the “Bret Ratio (% Max)” value ([6]; 10.0 nM, EGF added 100 ng/mL) was 30.7 % Max. For the same substance, the “Bret Ratio (% Max)” value ([6]; 30.0 nM, EGF added 0) was 52.8 % Max, the “Bret Ratio (% Max)” value ([6]; 30.0 nM, EGF added 100 ng/mL) was 39.7 % Max and the “Bret Ratio (% Max)” value ([6]; 100 nM, EGF added 0) was 64.1 % Max. The “Bret Ratio (% Max)” value ([6]; 100 nM, EGF added 100 ng/mL) was 54.7 % Max, the “Bret Ratio (% Max)” value ([6]; 300 nM, EGF added 0) was 70.8 % Max and the “Bret Ratio (% Max)” value ([6]; 300 nM, EGF added 100 ng/mL) was 63.8 % Max. The “Bret Ratio (% Max)” value ([6]; 1000 nM, EGF added 0) was 82.9 % Max, the “Bret Ratio (% Max)” value ([6]; 1000 nM, EGF added 100 ng/mL) was 77.4 % Max and the “Bret Ratio (% Max)” value ([6]; 3000 nM, EGF added 0) was 99.5 % Max. For the same substance, the “Bret Ratio (% Max)” value ([6]; 3000 nM, EGF added 100 ng/mL) was 94.2 % Max.

In the case of “FITC-^mCeoTeoGeo^mCeoTeoAdoGdo^mCds^mCdoTdo^mCdoTdoGdoGdoAdoTeoTeoTeoGeoAe (antisense {FITC}-e[5mC]eTeGe[5mC]eTdAdGd[5mC]*d[5mC]dTd[5mC]dTdGdGdAeTeTeTeGeA) [PO-ASO, FITC-labeled phosphate oligonucleotide]”, the “interaction with EGFR” value [7] was “did not appreciably interact” and the “interaction with EGF” value [8] was “did not appreciably interact”.
